# From patent US6326395A, “Antifungal activity of dicationic molecules” (priority 1999, dated 2001)
# Counter-ions that a name gives are not always drawn. Like-named read-outs stand apart in the source and are kept apart here.
# Columns and labels:
# Cryptococcus neoformans = test: in vitro antifungal susceptibility testing (MIC, MFC; broth macrodilution), Tables 1-7; type: cell-based; conditions: for MIC: read-out: MIC80 (Minimum inhibitory concentration 80%); for MFC: read-out: MFC (Minimum fungicidal concentration)
# Text: (§1) The fungi that were employed included two reference strains, C. neoformans var. neoformans H99 and C. albicans A39 and the following clinical isolates: (1) two strains of fluconazole-resistant C. neoformans var. neoformans (135.95 and 114.96); (2) two strains of C. neoformans var. gattii (119.95 and 114.95); (3) two strains of fluconazole-resistant C. albicans (102.96 and 103.96); and (4) one strain each of Torulopsis glabrata (142.91), Candida parapsilosis (111.96), Candida krusei (132.91), C. tropicalis (110.96), Candida lusitaniae (111.92), Fusarium solani (152.89), Aspergillus fumigatus (168.95), and Aspergillus flavus (112.96). Antifungal susceptibility testing was performed using an RPMI-1640 medium (Sigma Chemical Co., St. Louis, Mo.) with glutamine, without sodium bicarbonate, and buffered at pH 7.0 with 0.165 M morpholine-propanesulfonic acid (MOPS).
# (§2) In vitro susceptibility testing in the form of Minimum Inhibitory Concentration (MIC) experiments were performed using the broth macrodilution method according to the recommendations of the National Committee for Clinical Laboratory Standards (see 1995 manual). The only difference compared to the standardized procedure was the choice of drug dilutions ranging from 100 to 0.09 μg/ml. Briefly, this procedure specifies an inoculum grown at 35° C. and adjusted to a concentration of 0.5-2.5×10^3 CFU/ml with an incubation of the test performed at 35° C. and reading at 48 hours for all yeasts except for C. neoformans which is interpreted at 72 hr.
# (§3) Minimum Fungicidal Concentration (MFC) experiments were adapted from a method by McGinnis (McGinnis, M. R., (1980) "Susceptibility testing and bioassay procedure", p. 431, Academic Press, Inc., New York). Briefly, 10 μl aliquots from tubes with growth inhibition were plated onto Sabouraud agar plates.
# (§4) The fungi that were employed included two quality control reference strains, C. neoformans var. neoformansH99 and C. albicans A39 and the following clinical isolates: (1) four strains of C. neoformans var. neoformans (167.95; 135.95; 114.96; and 133.95) of which three were fluconazole-resistant>64 μg/ml (135.95; 114.96; and 133.95); (2) two strains of C. neoformans var. gattii (119.95 and 114.95); (3) two strains of fluconazole-resistant>64 μg/ml C. albicans (102.96 and 103.96); and (4) one strain each of C. glabrata (142.91), Candida parapsilosis (111.96), Candida krusei (132.91), C. tropicalis (110.96), Candida lusitaniae (111.92), Fusarium solani (152.89), Aspergillus fumigatus (168.95), Rhizopus arrhizus (117.89), Paecilomyces lilacinus (137.90), and Aspergillus flavus (112.96). Antifungal susceptibility testing was performed using an RPMI-1640 medium (Sigma Chemical Co., St. Louis, Mo.) with glutamine, without sodium bicarbonate, and buffered at pH 7.0 with 0.165 M morpholinepropanesulfonic acid (MOPS).
# as §3, with “p.431,” for “p. 431,”
# Candida albicans = test: as above; type: cell-based; conditions: for MIC: read-out: MIC80 (Minimum inhibitory concentration 80%); for MFC: read-out: MFC (Minimum fungicidal concentration)
# Text: as §1, §2, §3, §4
# as §3, with “p.431,” for “p. 431,”
# [1] = Tables 2-7, three or fewer colonies
# [2] = Table 1, three or fewer colonies
"MIC (Cryptococcus neoformans; 35° C., 72 hr) [µg/mL]","MIC (Candida albicans; 35° C., reading at 48 hours) [µg/mL]",Structure (SMILES),MFC (Cryptococcus neoformans; [1]) [µg/mL],MFC (Candida albicans; three or fewer colonies) [µg/mL],MFC (Cryptococcus neoformans; [2]) [µg/mL],MIC (Cryptococcus neoformans; 72 h) [µg/mL],MFC (Cryptococcus neoformans) [µg/mL],MIC (Candida albicans; 48 h) [µg/mL],MFC (Candida albicans) [µg/mL],MFC (Minimum fungicidal concentration) (Cryptococcus neoformans; [1]) [µg/mL]
0.19,0.39,N=C(N)c1ccc(OCCCOc2ccc(-c3nc4ccc(C(=N)N)cc4[nH]3)cc2)cc1 [Compound 64],0.78,0.78,–,–,–,–,–,–
3.12,50,N=C(N)c1cccc(-c2ccc(-c3cccc(C(=N)N)c3)o2)c1 [Compound 38],25,100,–,–,–,–,–,–
0.78,0.78,N=C(N)c1ccc(NCCCCCCNc2ccc(C(=N)N)cc2N)c(N)c1 [Compound 20],–,3.12,3.12,–,–,–,–,–
12.5,12.5,N=C(N)c1ccc(OCCC(O)CCOc2ccc(C(=N)N)cc2)cc1 (stereo not drawn) [Compound 22],12.5,12.5,–,–,–,–,–,–
–,–,CN1CCN(c2ccc3nc(-c4ccc5nc(-c6ccc(O)cc6)[nH]c5c4)[nH]c3c2)CC1 [Compound 58],–,–,–,100,> 100,25,50,–
0.78,1.56,c1cc2nc(-c3ccc(-c4nc5ccc(C6=NCCCN6)cc5[nH]4)cc3)[nH]c2cc1C1=NCCCN1 [Compound 49],1.56,3.12,–,–,–,–,–,–
> 100,> 100,CN1CCN=C1c1ccc(OCCCCOc2ccc(C3=NCCN3C)cc2)cc1 [Compound 15],–,> 100,> 100,–,–,–,–,–
1.56,1.56,"N=C(NC1CCCC1)c1ccc2nc(-c3ccc(-c4ccc(-c5ccc(-c6nc7ccc(C(=N)NC8CCCC8)cc7[nH]6)cc5)o4)cc3)[nH]c2c1 [Compound 54, 4,4'-Bis[2-(5-N-cyclopentylamidino)benzimidazoyl]-2,5-diphenylfuran hydrochloride]",6.25,1.56,–,–,–,–,–,–
50,25,COc1ccc(-c2nc3ccc(C4=NCCN4)cc3[nH]2)cc1 [Compound 59],100,–,–,–,–,–,–,–
–,> 100,N=C(N)c1cccc(OCCCOc2cccc(C(=N)N)c2)c1 [Compound 7],–,> 100,–,–,–,–,–,–
25,12.5,N=C(N)c1cccc(OCCCCOc2cccc(C(=N)N)c2)c1 [Compound 16],–,25,25,–,–,–,–,–
3.12,25,N=C(N)c1ccc(OCCCCOc2ccc(C(=N)N)cc2)cc1 [Compound 11],–,50,6.25,–,–,–,–,–
25,100,N=C(N)c1ccc(-c2nc3ccc(C(=N)N)cc3[nH]2)cc1 [Compound 60],50,> 100,–,–,–,–,–,–
0.78,≤ 0.09,N=C(N)c1ccc(NCCCCCNc2ccc(C(=N)N)cc2)cc1 [Compound 18],–,0.39,1.56,–,–,–,–,–
12.5,> 100,CN(C)CCNC(=N)c1cccc(-c2ccc(-c3cccc(C(=N)NCCN(C)C)c3)o2)c1 [Compound 41],50,–,–,–,–,–,–,–
1.56,3.12,N=C(N)c1ccc(OCCCCCOc2ccc(C(=N)N)cc2Cl)c(Cl)c1 [Compound 17],–,6.25,3.12,–,–,–,–,–
100,> 100,c1cc2nc(Cc3nc4ccc(C5=NCCN5)cc4[nH]3)[nH]c2cc1C1=NCCN1 [Compound 29],> 100,> 100,–,–,–,–,–,–
0.19,0.39,"N=C(N)c1ccc2nc(-c3ccc4oc(-c5nc6ccc(C(=N)N)cc6[nH]5)cc4c3)[nH]c2c1 [Compound 55, 2,5-Bis[2-(5-amidino)benzimidazoyl]benzo[b]furan hydrochloride]",0.19,0.78,–,–,–,–,–,–
6.25,25,CC(C)NC(=N)c1ccc(-c2ccc(-c3ccc(C(=N)NC(C)C)cc3)o2)cc1 [Compound 25],50,50,–,–,–,–,–,–
> 110,> 100,CN(C)CCCN(C)C(=O)c1ccc(-c2ccc(-c3ccc(C(=O)N(C)CCCN(C)C)cc3)o2)cc1 [Compound 37],–,–,–,–,–,–,–,–

"MIC (Cryptococcus neoformans; 35° C., 72 hr) [µg/mL]","MIC (Candida albicans; 35° C., reading at 48 hours) [µg/mL]",Structure (SMILES),MFC (Cryptococcus neoformans; [1]) [µg/mL],MFC (Candida albicans; three or fewer colonies) [µg/mL],MFC (Cryptococcus neoformans; [2]) [µg/mL],MIC (Cryptococcus neoformans; 72 h) [µg/mL],MFC (Cryptococcus neoformans) [µg/mL],MIC (Candida albicans; 48 h) [µg/mL],MFC (Candida albicans) [µg/mL],MFC (Minimum fungicidal concentration) (Cryptococcus neoformans; [1]) [µg/mL]
12.5,12.5,COc1cc(C(=N)N)ccc1OCCCOc1ccc(C(=N)N)cc1OC [Compound 4],–,50,12.5,–,–,–,–,–
50,50,c1cc(-c2nc3ccc(C4=NCCN4)cc3[nH]2)ccc1C1=NCCN1 [Compound 62],–,> 100,–,–,–,–,–,–
0.39,> 100,N=C(N)c1ccc2nc(-c3ccc(-c4nc5ccc(C(=N)N)cc5[nH]4)cc3)[nH]c2c1 [Compound 47],0.39,–,–,–,–,–,–,–
25,12.5,N=C(N)c1ccc(NCCCNc2ccc(C(=N)N)cc2N)c(N)c1 [Compound 9],–,> 100,50,–,–,–,–,–
> 100,3.12,N=C(N)c1ccc(OCCOc2ccc(C(=N)N)cc2)cc1 [Compound 1],–,100,–,–,–,–,–,–
–,–,N=C(N)c1ccc2nc(Cc3nc4ccc(C(=N)N)cc4[nH]3)[nH]c2c1 [Compound 28],–,–,–,> 100,–,> 100,–,–
1.56,12.5,CCCNC(=N)c1ccc(-c2ccc(-c3ccc(C(=N)NCCC)cc3)o2)cc1 [Compound 24],6.25,12.5,–,–,–,–,–,–
–,–,N=C(N)c1ccc(NCCCNc2ccc(C(=N)N)cc2[N+](=O)[O-])c([N+](=O)[O-])c1 [Compound 10],–,–,–,100,100,100,100,–
6.25,1.58,N=C(N)c1cccc(OCCCCCCOc2cccc(C(=N)N)c2)c1 [Compound 19],–,12.5,12.5,–,–,–,–,–
3.12,12.5,CC(C)CNC(=N)c1ccc(-c2ccc(-c3ccc(C(=N)NCC(C)C)cc3)o2)cc1 [Compound 27],12.5,–,–,–,–,–,–,–
12.5,6.25,N=C(N)c1ccc(OCCCCOc2ccc(C(=N)N)cc2N)c(N)c1 [Compound 13],–,–,50,–,–,–,–,–
> 100,> 100,N=C(N)c1ccc2nc(-c3ccc(O)cc3)[nH]c2c1 [Compound 61],> 100,–,–,–,–,–,–,–
1.56,0.19,N=C(N)c1ccc(NCCCNc2ccc(C(=N)N)cc2)cc1 [Compound 8],–,0.39,6.25,–,–,–,–,–
> 100,> 100,COc1cc(C(N)=NO)ccc1OCCCOc1ccc(C(N)=NO)cc1OC [Compound 6],–,–,–,–,–,–,–,–
25,50,c1cc(-c2nc3ccc(C4=NCCCN4)cc3[nH]2)ccc1C1=NCCCN1 [Compound 63],50,100,–,–,–,–,–,–
–,–,"N=C(N)c1ccc(OCCCCCOc2ccc(C(=N)N)cc2)cc1 [Pentamidine, reference compound]",–,–,–,3.12,6.25,0.78,1.56,6.25
6.25,6.25,N=C(N)c1ccc(OCCCC(O)COc2ccc(C(=N)N)cc2)cc1 (stereo not drawn) [Compound 21],12.5,12.5,–,–,–,–,–,–
50,> 100,COc1cc(C(=N)N)ccc1OCCCCOc1ccc(C(=N)N)cc1OC [Compound 12],–,> 100,> 100,–,–,–,–,–
6.25,12.5,N=C(N)c1ccc2nc(CCc3nc4ccc(C(=N)N)cc4[nH]3)[nH]c2c1 [Compound 30],25,50,–,–,–,–,–,–
